From patent US20120157471A1, “BENZIMIDAZOLE DERIVATIVES” (PFIZER INC., priority 2009, published 2012)
pIC50: −log10 of the molar value.

Assays:
Gli-Luc/MEF cells (Smo) = test: Gli-Luc/MEF assay (Shh-stimulated luciferase reporter under the Gli response element); type: cell-based, mouse
In short: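 IC50 derived from luminescence (Bright-Glo) after 48 h at 37° C, 5% CO2, with compound at […] (3-fold dilutions) added together with mouse Shh at 2 μg/mL final. Cells: MEFs from Gli-Luc transgenic mice.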

[1] = molecular target: T1, human Smo (amino acids 181-787) (Homo sapiens, UniProt Q99835); test: Smo radioligand competition binding assay (displacement of 3H-PF-03451358 from HEK293 membranes); conditions: for inhibition at 0.05 µM: read-out: SMO % inh. @ 0.05 μM; for pIC50: radioligand competition binding
T1 construct: expressed in transfected cells; membrane preparation
In short: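 Displacement of 3 nM tritiated PF-03451358 measured by filtration and scintillation counting after 2 h at room temperature, using 40 μg/well HEK293 membranes bearing cell-surface Smo 181-787, pH 7.5 buffer. Specific binding defined against 30 μM unlabelled ligand; IC50 via variable-slope sigmoidal fit.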

[2] = 0.05 μM test compound, displacement of 3H-PF-03451358

T1 sequence (Q99835 181-787): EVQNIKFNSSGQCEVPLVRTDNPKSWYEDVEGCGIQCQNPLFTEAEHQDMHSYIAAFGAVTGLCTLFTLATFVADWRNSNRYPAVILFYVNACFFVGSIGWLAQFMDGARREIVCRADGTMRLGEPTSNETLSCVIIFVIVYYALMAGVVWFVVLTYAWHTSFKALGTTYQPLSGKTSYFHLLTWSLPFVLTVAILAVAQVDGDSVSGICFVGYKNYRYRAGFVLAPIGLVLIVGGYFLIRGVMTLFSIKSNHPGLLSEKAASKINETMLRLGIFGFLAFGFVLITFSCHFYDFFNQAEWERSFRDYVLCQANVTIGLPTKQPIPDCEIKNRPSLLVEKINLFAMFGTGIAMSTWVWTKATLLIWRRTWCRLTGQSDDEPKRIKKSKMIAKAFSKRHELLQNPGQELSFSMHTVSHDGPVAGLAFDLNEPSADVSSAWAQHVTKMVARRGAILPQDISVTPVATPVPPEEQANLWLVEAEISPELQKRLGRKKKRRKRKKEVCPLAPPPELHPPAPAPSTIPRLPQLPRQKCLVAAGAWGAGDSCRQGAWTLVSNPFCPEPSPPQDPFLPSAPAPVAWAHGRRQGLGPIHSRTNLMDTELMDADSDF

SMILES	pIC50 (Gli-Luc/MEF cells (Smo); Mus musculus, MEF, 48 h)	inhibition at 0.05 µM [1, 2]	pIC50 [1]	pIC50 (Gli-Luc/MEF cells (Smo); 48 hours)	SMO % inh. @ 0.05 μM ([1]; 0.05 μM test compound, displacement of 3H-PF-03451358, 0.05 µM)
Cn1c(-c2cc(N3CCc4[nH]ncc4C3)ncc2Cl)nc2ccccc21 [Example A-173, 5-[5-chloro-4-(1-methyl-1H-benzimidazol-2-yl)pyridin-2-yl]-4,5,6,7-tetrahydro-1H-pyrazolo[4,3-c]pyridine]	7.62	83%	6.97	–	–
Cn1c(-c2ccnc(N3CCC(S(C)(=O)=O)CC3)c2)nc2ccccc21 [Example A-10, 1-methyl-2-{2-[4-(methylsulfonyl)piperidin-1-yl]pyridin-4-yl}-1H-benzimidazole]	7.42	80%	7.02	–	–
CNC(=O)c1[nH]nc2c1CN(c1cc(-c3nc4ccccc4n3C)c(Cl)cn1)CC2 [Example A-114, 5-[5-chloro-4-(1-methyl-1H-benzimidazol-2-yl)pyridin-2-yl]-N-methyl-4,5,6,7-tetrahydro-1H-pyrazolo[4,3-c]pyridine-3-carboxamide]	7.33	71%	6.85	–	–
CNC(=O)N1CCN(c2cc(-c3nc4ccccc4n3C)ccn2)CC1 [Example A-144, N-methyl-4-[4-(1-methyl-1H-benzimidazol-2-yl)pyridin-2-yl]piperazine-1-carboxamide]	6.80	78%	7.05	–	–
Cn1c(-c2cc(N3CCOCC3)ncc2Cl)nc2ccccc21 [Example A-34, 2-(5-chloro-2-morpholin-4-ylpyridin-4-yl)-1-methyl-1H-benzimidazole]	7.80	95%	7.66	–	–
CN1CCN(C2CCN(c3cc(-c4nc5ccccc5n4C)c(Cl)cn3)CC2)CC1 [Example A-113, 2-{5-chloro-2-[4-(4-methylpiperazin-1-yl)piperidin-1-yl]pyridin-4-yl}-1-methyl-1H-benzimidazole]	7.77	72%	6.90	–	–
COCCS(=O)(=O)NC1CN(c2cc(-c3nc4ccccc4n3C)c(Cl)cn2)C1 [Example A-195, N-{1-[5-chloro-4-(1-methyl-1H-benzimidazol-2-yl)pyridin-2-yl]azetidin-3-yl}-2-methoxyethanesulfonamide]	8.31	101%	8.02	–	–
Cn1c(-c2nc(N3CCC(NS(C)(=O)=O)CC3)ncc2Cl)nc2ccccc21 [Example C-9, N-{1-[5-chloro-4-(1-methyl-1H-benzimidazol-2-yl)pyrimidin-2-yl]piperidin-4-yl}methanesulfonamide]	8.70	100%	8.22	–	–
Cn1c(-c2cc(N3CC[C@@H](O)C3)ncc2Cl)nc2ccccc21 [Example A-26, (3R)-1-[5-chloro-4-(1-methyl-1H-benzimidazol-2-yl)pyridin-2-yl]pyrrolidin-3-ol]	7.31	64%	6.78	–	–
CC(=O)N1CCC(N(C)c2cc(-c3nc4ccccc4n3C)c(Cl)cn2)CC1 [Example A-58, N-(1-acetylpiperidin-4-yl)-5-chloro-N-methyl-4-(1-methyl-1H-benzimidazol-2-yl)pyridin-2-amine]	7.51	97%	7.82	–	–
CNC(=O)NC1CCN(c2cc(-c3nc4ccccc4n3C)c(F)cn2)CC1 [Example D-13, 1-{1-[5-fluoro-4-(1-methyl-1H-benzimidazol-2-yl)pyridin-2-yl]piperidin-4-yl}-3-methylurea]	7.87	97%	7.64	–	–
CC(=O)NC1CCN(c2cc(-c3nc4ccccc4n3C)c(Cl)cn2)C1 (centres unmarked) [Example A-42, N-{1-[5-chloro-4-(1-methyl-1H-benzimidazol-2-yl)pyridin-2-yl]pyrrolidin-3-yl}acetamide]	7.04	72%	6.88	–	–
COC1CCOC2(CCN(c3cc(-c4nc5ccccc5n4C)c(Cl)cn3)CC2)C1 (centres unmarked) [Example A-90, 9-[5-chloro-4-(1-methyl-1H-benzimidazol-2-yl)pyridin-2-yl]-4-methoxy-1-oxa-9-azaspiro[5.5]undecane]	7.80	88%	7.15	–	–
Cn1c(-c2cc(N3CCS(=O)(=O)CC3)ncc2Cl)nc2ccccc21 [Example A-89, 2-[5-chloro-2-(1,1-dioxidothiomorpholin-4-yl)pyridin-4-yl]-1-methyl-1H-benzimidazole]	7.36	88%	7.40	–	–
CC(=O)N1CCN(c2cc(-c3nc4ccccc4n3C)c(C)cn2)CC1 [Example E-4, 2-[2-(4-acetylpiperazin-1-yl)-5-methylpyridin-4-yl]-1-methyl-1H-benzimidazole]	7.28	92%	7.21	–	–
Cn1c(-c2nc(N3CCN(S(C)(=O)=O)CC3)ncc2Cl)nc2ccccc21 [Example C-3, 2-{5-Chloro-2-[4-(methylsulfonyl)piperazin-1-yl]pyrimidin-4-yl}-1-methyl-1H-benzimidazole]	7.72	96%	8.05	–	–
CC(=O)N1CCN(c2cccc(-c3nc4ccccc4n3C)n2)CC1 [Example B-8, 2-[6-(4-acetylpiperazin-1-yl)pyridin-2-yl]-1-methyl-1H-benzimidazole]	7.34	90%	7.49	–	–
COCc1nc(C2CCN(c3cc(-c4nc5ccccc5n4C)c(Cl)cn3)CC2)no1 [Example A-49, 2-(5-chloro-2-{4-[5-(methoxymethyl)-1,2,4-oxadiazol-3-yl]piperidin-1-yl}pyridin-4-yl)-1-methyl-1H-benzimidazole]	8.15	100%	7.96	–	–
Cn1c(-c2cc(N3CCN(S(C)(=O)=O)CC3)ncc2Cl)nc2ccccc21 [Example A-4, 2-{5-chloro-2-[4-(methylsulfonyl)piperazin-1-yl]pyridin-4-yl}-1-methyl-1H-benzimidazole]	8.52	91%	7.53	–	–
COC(=O)NC1CCN(c2cc(-c3nc4ccccc4n3C)ccn2)CC1 [Example A-19, methyl {1-[4-(1-methyl-1H-benzimidazol-2-yl)pyridin-2-yl]piperidin-4-yl}carbamate]	7.82	84%	7.60	–	–
Cc1ccc(N2CCC(NS(C)(=O)=O)CC2)nc1-c1nc2ccccc2n1C [Example B-13, N-{1-[5-methyl-6-(1-methyl-1H-benzimidazol-2-yl)pyridin-2-yl]piperidin-4-yl}methanesulfonamide]	8.09	98%	7.96	–	–
CC(C)NC(=O)NC1CN(c2cc(-c3nc4ccccc4n3C)c(Cl)cn2)C1 [Example A-188, 1-{1-[5-chloro-4-(1-methyl-1H-benzimidazol-2-yl)pyridin-2-yl]azetidin-3-yl}-3-isopropylurea]	8.00	97%	7.82	–	–
Cn1c(-c2cc(N3CCC(OCCO)CC3)ncc2Cl)nc2ccccc21 [Example A-79, 2-({1-[5-chloro-4-(1-methyl-1H-benzimidazol-2-yl)pyridin-2-yl]piperidin-4-yl}oxy)ethanol]	8.15	92%	7.64	–	–
Cn1c(-c2cc(N3CC[C@@H](O)[C@@H](O)C3)ncc2Cl)nc2ccccc21 [Example A-96, (3S,4R)-1-[5-chloro-4-(1-methyl-1H-benzimidazol-2-yl)pyridin-2-yl]piperidine-3,4-diol]	7.80	86%	7.34	–	–
Cn1c(-c2cc(N3C[C@@H](O)[C@H](O)C3)ncc2Cl)nc2ccccc21 [Example A-127, (3R,4R)-1-[5-chloro-4-(1-methyl-1H-benzimidazol-2-yl)pyridin-2-yl]pyrrolidine-3,4-diol]	6.89	57%	–	–	–
COCCc1[nH]nc2c1CN(c1cc(-c3nc4ccccc4n3C)c(Cl)cn1)CC2 [Example A-99, 5-[5-chloro-4-(1-methyl-1H-benzimidazol-2-yl)pyridin-2-yl]-3-(2-methoxyethyl)-4,5,6,7-tetrahydro-1H-pyrazolo[4,3-c]pyridine]	7.55	84%	7.08	–	–
Cn1c(-c2cc(N3CCN(CCS(C)(=O)=O)CC3)ncc2Cl)nc2ccccc21 [Example A-61, 2-(5-chloro-2-{4-[2-(methylsulfonyl)ethyl]piperazin-1-yl}pyridin-4-yl)-1-methyl-1H-benzimidazole]	–	–	7.74	7.14	96%
